Data on 40 compounds can be found in US11124497B1, “Inhibitors of cysteine proteases and methods of use thereof” (priority 2020, dated 2021).

Each structure is given as a SMILES string. pEC50, pIC50: −log10 of the molar value. Read-outs that look alike come from different tables or passages of the source.

In one experiment the target is 229E mPRO (Human coronavirus 229E (HCoV-229E), UniProt P0C6X1). In words: 229E mPRO enzymatic assay. Type of experiment: biochemical, Human Coronavirus (HCov) 229E. The settings on record: for pIC50: read-out: 229E mPRO IC50.
Sequence of 229E mPRO (P0C6X1 2966-3267 limits assumed): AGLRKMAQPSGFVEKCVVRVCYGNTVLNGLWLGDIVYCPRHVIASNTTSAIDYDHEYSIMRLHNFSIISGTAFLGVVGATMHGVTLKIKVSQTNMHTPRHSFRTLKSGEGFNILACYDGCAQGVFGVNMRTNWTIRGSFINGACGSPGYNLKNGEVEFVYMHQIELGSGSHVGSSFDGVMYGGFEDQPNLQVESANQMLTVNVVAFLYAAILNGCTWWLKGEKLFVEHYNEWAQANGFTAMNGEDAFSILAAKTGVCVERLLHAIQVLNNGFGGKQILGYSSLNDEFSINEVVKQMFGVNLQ
The next experiment has as its system HCoV 229E. The experiment in a line: HCoV 229E cytopathic effect (CPE) assay. The experiment is classed as cell-based, Human Coronavirus (HCov) 229E. As to conditions: unidentified human coronavirus, CellTiter Glo, read-out: 229 ECPE EC50. Here is the method:
Compounds were assayed using standard methods against multiple coronaviral strains, including HCoV 229E and OC43 strains. The antiviral activity of compounds was calculated based on the protection of the virus-induced CPE at each concentration normalized by the virus control.
Cytopathic effect (CPE) was measured by CellTiter Glo following the manufacturer's manual. The antiviral activity of compounds was calculated based on the protection of the virus-induced CPE at each concentration normalized by the virus control.

Protocol for 229E mPRO: Compounds were assayed using standard methods to assess compound activity and IC50. […] The assay buffer contained 20 mM of Tris-HCl (pH 7.3), 100 mM of NaCl, 1 mM of EDTA, 5 mM of TCEP and 0.1% BSA.
The compounds were added to an assay plate.
IC50 values of compounds were calculated with the GraphPad Prism software using the nonlinear regression model of log(inhibitor) vs. response—Variable slope (four parameters). The inhibition activity was calculated using the formula below, IC50 values was calculated using the Inhibition % data. Inhibition %=[(Sample−Average ZPE)/(Average HPE−Average ZPE)]*100%^# • ^#HEP: Hundred percent effect controls. […] Containing enzyme+substrate, no compound. • Sample: Compound activity testing wells. Containing compound+enzyme+substrate. • BG: Compound background control wells. Containing compound+substrate, no enzyme.

As to `COc1cccc2[nH]c(C(=O)N[C@@H](CC(C)C)C(=O)N[C@H](C#N)Cc3n[nH]c4ccccc34)cc12` (mixture of isomers) [Compound 245], the pIC50 at 229E mPRO is less than 4.52.
As to `COc1cccc2[nH]c(C(=O)N[C@@H](CC(C)C)C(=O)N[C@@H](C[C@@H]3CCNC3=O)C(C#N)N3CCCC3)cc12` (single isomer, unassigned) [331 (Isomer 1)], the pIC50 at 229E mPRO was more than 4.66. The negative-log EC50 (pEC50) in the experiment on HCoV 229E was more than 4.66.
With `COc1cccc2[nH]c(C(=O)N[C@@H](CC(C)C)C(=O)N[C@@H](C[C@@H]3CCNC3=O)C(C#N)N3CCCC3)cc12` (single isomer, unassigned) [331 (Isomer 2)], the pIC50 on 229E mPRO is more than 4.66.
As for `CC(C)C[C@H](NC(=O)CC(C)(O)c1ccc(Cl)cc1)C(=O)N[C@H](C#N)C[C@@H]1CCNC1=O` (single isomer, unassigned) [365 (Isomer 1)], the IC50 against 229E mPRO (229E mPRO IC50 (μM)) was in the range of 2 to 10 µM.
As for `COc1cccc2[nH]c(C(=O)N3CC(C45CC(C4)C5)C[C@H]3C(=O)N[C@H](C#N)C[C@@H]3CCNC3=O)cc12` (single isomer, unassigned) [385 (Isomer 1)], at 229E mPRO, the pIC50 was more than 4.66. In the experiment with HCoV 229E, the pEC50 is more than 4.66.
Take `COc1cccc2[nH]c(C(=O)N3CC(C45CC(C4)C5)C[C@H]3C(=O)N[C@H](C#N)C[C@@H]3CCNC3=O)cc12` (single isomer, unassigned) [385 (Isomer 2)]: on 229E mPRO, the negative-log IC50 (pIC50) was more than 4.66.
The same measure, in the same setting: then `CC(C)(C)OC(=O)N1CCCCC12CCN([C@@H](CC1CC1)C(=O)N[C@H](C#N)C[C@@H]1CCNC1=O)C2=O` (single isomer, unassigned) [473 (Isomer 1)], with less than 4.52.
With `N#C[C@H](C[C@@H]1CCCNC1=O)NC(=O)[C@H](CC1CC1)NC(=O)c1cc2cccc(Cl)c2[nH]1` (single isomer, unassigned) [639 (Isomer 1)], on 229E mPRO, the pIC50 is more than 4.66. Moreover, in the experiment on HCoV 229E, the pEC50 is more than 4.66.
On to `COc1cccc2[nH]c(C(=O)N[C@@H](CC(C)C)C(=O)N[C@H](C#N)C[C@@H]3CCNC3=O)cc12` [Compound 101, N-[(1S)-1-[[(1S)-1-cyano-2-[(3S)-2-oxopyrrolidin-3-yl]ethyl]carbamoyl]-3-methyl-butyl]-4-methoxy-1H-indole-2-carboxamide], for which the pIC50 on 229E mPRO was more than 4.66. The pEC50 with HCoV 229E was more than 4.66.
As to `COc1cccc2[nH]c(C(=O)N[C@H](C(=O)N[C@H](C#N)C[C@@H]3CCNC3=O)[C@@H]3Cc4ccccc4O3)cc12` [Compound 147], the pIC50 at 229E mPRO is less than 4.52.
`COc1cccc2[nH]c(C(=O)N[C@H](C(=O)N[C@H](C#N)C[C@@H]3CCNC3=O)C3Cc4ccccc4C3)cc12` [Compound 149, N-[(1S)-2-[[(1S)-1-cyano-2-[(3S)-2-oxopyrrolidin-3-yl]ethyl]amino]-1-indan-2-yl-2-oxo-ethyl]-4-methoxy-1H-indole-2-carboxamide]: the pIC50 on 229E mPRO was 5.00 to 5.70. The pEC50 in the experiment on HCoV 229E is 5.00 to 5.70.
On to `COc1cccc2[nH]c(C(=O)N[C@@H](Cc3cccc(Cl)c3)C(=O)N[C@H](C#N)C[C@@H]3CCNC3=O)cc12` [Compound 153], for which, on 229E mPRO, the pIC50 is 4.52 to 5.00.
Turning to `COc1cccc2[nH]c(C(=O)N3C[C@H](OC(C)(C)C)C[C@H]3C(=O)N[C@H](C#N)C[C@@H]3CCNC3=O)cc12` [Compound 165, (2S,4R)-4-(tert-butoxy)-N—((S)-1-cyano-2-((S)-2-oxopyrrolidin-3-yl)ethyl)-1-(4-methoxy-1H-indole-2-carbonyl)pyrrolidine-2-carboxamide], at 229E mPRO, the negative logarithm of the IC50 (pIC50) is less than 4.52.
On the same count and under the same terms, the value for `COc1cccc2[nH]c(C(=O)N3C[C@H](C4CCCCC4)C[C@H]3C(=O)N[C@H](C#N)C[C@@H]3CCNC3=O)cc12` [Compound 167, (2S,4S)—N—((S)-1-cyano-2-((S)-2-oxopyrrolidin-3-yl)ethyl)-4-cyclohexyl-1-(4-methoxy-1H-indole-2-carbonyl)pyrrolidine-2-carboxamide] was 5.00 to 5.70; that for `COc1cccc2[nH]c(C(=O)N3CCC4(CC4)C[C@H]3C(=O)N[C@H](C#N)C[C@@H]3CCNC3=O)cc12` [Compound 183, (S)—N—((S)-1-cyano-2-((S)-2-oxopyrrolidin-3-yl)ethyl)-6-(4-methoxy-1H-indole-2-carbonyl)-6-azaspiro[2.5]octane-5-carboxamide] was 5.00 to 5.70.
Same read-out and setting: then `N#C[C@H](C[C@@H]1CCNC1=O)NC(=O)[C@@H]1C[C@@H](c2ccccc2)CN1C(=O)/C=C/c1ccc(Cl)cc1F` [Compound 209, (2S,4S)-1-((E)-3-(4-chloro-2-fluorophenyl)acryloyl)-N—((S)-1-cyano-2-((S)-2-oxopyrrolidin-3-yl)ethyl)-4-phenylpyrrolidine-2-carboxamide], with 4.52 to 5.00.
On the same count and under the same terms, then `N#C[C@H](C[C@@H]1CCNC1=O)NC(=O)[C@@H]1CCCNN1C(=O)/C=C/c1ccc(Cl)cc1F` [Compound 213, (S)-2-((E)-3-(4-chloro-2-fluorophenyl)acryloyl)-N—((S)-1-cyano-2-((S)-2-oxopyrrolidin-3-yl)ethyl)hexahydropyridazine-3-carboxamide], with less than 4.52; and `CN1CCCC[C@]12CCN([C@@H](CC1CC1)C(=O)N[C@H](C#N)C[C@@H]1CCNC1=O)C2=O` [Compound 273C], with 5.00 to 5.70.
For the compound `CCCN1C(=N)C([C@H](C[C@@H]2CCNC2=O)NC(=O)[C@H](CC(C)C)NC(=O)c2cc3c(OC)cccc3[nH]2)OC1=O` (some centres unmarked) [Compound 355], the pIC50 at 229E mPRO is 5.00 to 5.70. Further, the pEC50 in the experiment with HCoV 229E was less than 4.52.
As for `COc1cccc2[nH]c(C(=O)N[C@@H](CC(C)C)C(=O)N[C@@H](C[C@@H]3CCNC3=O)C3OC(=O)N(C(C)C)C3=N)cc12` (some centres unmarked) [Compound 357], the pIC50 on 229E mPRO is less than 4.52.
Same read-out and setting: the value for `COc1cccc2[nH]c(C(=O)N[C@@H](CC(C)C)C(=O)N[C@@H](C[C@@H]3CCNC3=O)C3OC(=O)N(c4ccccc4)C3=N)cc12` (some centres unmarked) [Compound 359] was 4.52 to 5.00.
For `CCCOc1cccc2[nH]c(C(=O)N[C@@H](CC(C)C)C(=O)N[C@H](C#N)C[C@@H]3CCNC3=O)cc12` [Compound 379], the pIC50 at 229E mPRO is more than 4.66. In addition, the pEC50 with HCoV 229E was more than 4.66.
For the compound `COc1cccc2[nH]c(C(=O)N3CC4(CCOCC4)CC3C(=O)N[C@H](C#N)C[C@@H]3CCNC3=O)cc12` (some centres unmarked) [Compound 387], the negative logarithm of the IC50 (pIC50) at 229E mPRO is less than 4.52.
As to `COc1cccc2[nH]c(C(=O)N3C[C@H](OC)C[C@H]3C(=O)N[C@H](C#N)C[C@@H]3CCNC3=O)cc12` [Compound 407], on 229E mPRO, the pIC50 is more than 4.66. Moreover, the pEC50 in the experiment on HCoV 229E is more than 4.66.
Consider `N#C[C@H](C[C@@H]1CCNC1=O)NC(=O)[C@H](CC1CC1)N1CCC2(CCCN2)C1=O` (some centres unmarked) [Compound 471], for which, at 229E mPRO, the pIC50 was 4.52 to 5.00.
On the same count and under the same terms, then `N#C[C@H](C[C@@H]1CCNC1=O)NC(=O)[C@@H]1CS[C@H]2CC[C@H](NC(=O)OCC3c4ccccc4-c4ccccc43)C(=O)N21` [Compound 477], with less than 4.52.
With `CC(C)C[C@H](NC(=O)c1cc2c(OC(F)F)cccc2[nH]1)C(=O)N[C@H](C#N)C[C@@H]1CCNC1=O` [Compound 509], the pIC50 at 229E mPRO is more than 4.66. Moreover, in the experiment with HCoV 229E, the pEC50 is more than 4.66.
Turning to `N#C[C@H](C[C@@H]1CCNC1=O)NC(=O)[C@H](CC1CC1)NC(=O)c1cc2cc(Cl)ccc2[nH]1` [Compound 519], at 229E mPRO, the pIC50 is more than 4.66. Also, the pEC50 with HCoV 229E was more than 4.66.
Take `N#C[C@H](C[C@@H]1CCNC1=O)NC(=O)[C@H](CC1CC1)NC(=O)c1cc2cccc(Cl)c2[nH]1` [Compound 531, 7-chloro-N-[(1S)-2-[[(1S)-1-cyano-2-[(3S)-2-oxopyrrolidin-3-yl]ethyl]amino]-1-(cyclopropylmethyl)-2-oxo-ethyl]-1H-indole-2-carboxamide]: on 229E mPRO, the pIC50 was more than 4.66. Besides, in the experiment on HCoV 229E, the pEC50 is more than 4.66.
Consider `CCO[C@@H]1C[C@@H](C(=O)N[C@H](C#N)C[C@@H]2CCNC2=O)N(C(=O)c2cc3c(OC)cccc3[nH]2)C1` [Compound 535], for which, at 229E mPRO, the pIC50 was less than 4.52.
For the compound `COc1cccc2[nH]c(C(=O)N[C@@H](CC3CCC3)C(=O)N[C@H](C#N)C[C@@H]3CCNC3=O)cc12` [Compound 577], the pIC50 on 229E mPRO was more than 4.66. Also, the pEC50 in the experiment with HCoV 229E was more than 4.66.
Turning to `CCCNC(=O)OC(C#N)[C@H](C[C@@H]1CCNC1=O)NC(=O)[C@H](CC(C)C)NC(=O)c1cc2c(OC)cccc2[nH]1` (some centres unmarked) [Compound 581], at 229E mPRO, the pIC50 is less than 4.52.
The same measure, in the same setting: the value for `COc1cccc2[nH]c(C(=O)N[C@@H](CC(C)C)C(=O)N[C@@H](C[C@@H]3CCNC3=O)C(C#N)OC(=O)NC(C)C)cc12` (some centres unmarked) [Compound 583] was less than 4.52.
For the compound `CC(C)C[C@H](NC(=O)/C=C/c1ccc(Cl)cc1F)C(=O)N[C@H](C#N)C[C@@H]1CCNC1=O` [Compound 598], the pIC50 at 229E mPRO is 5.00 to 5.70. In addition, in the experiment with HCoV 229E, the pEC50 is more than 4.66.
In the case of `CC(C)(C)C[C@H](NC(=O)c1cc2cccc(Cl)c2[nH]1)C(=O)N[C@H](C#N)C[C@@H]1CCCNC1=O` [Compound 721, 7-chloro-N—((S)-1-(((S)-1-cyano-2-((S)-2-oxopiperidin-3-yl)ethyl)amino)-4,4-dimethyl-1-oxopentan-2-yl)-1H-indole-2-carboxamide], in the experiment on HCoV 229E, the pEC50 is more than 4.66.
On the same count and under the same terms, the value for `CC(C)(C)C[C@H](NC(=O)c1cc2ccc(Cl)c(Cl)c2[nH]1)C(=O)N[C@H](C#N)C[C@@H]1CCCNC1=O` [Compound 725] was more than 4.66; that for `CC(C)(C)C[C@H](NC(=O)c1cc2c(Cl)ccc(Cl)c2[nH]1)C(=O)N[C@H](C#N)C[C@@H]1CCCNC1=O` [Compound 735] was more than 4.66.
Same read-out and setting: then `COc1ccc(Cl)c2[nH]c(C(=O)N[C@@H](CC(C)(C)C)C(=O)N[C@H](C#N)C[C@@H]3CCCNC3=O)cc12` [Compound 737], with more than 4.66; and `COc1c(Cl)ccc2[nH]c(C(=O)N[C@@H](CC(C)(C)C)C(=O)N[C@H](C#N)C[C@@H]3CCCNC3=O)cc12` [Compound 739], with more than 4.66; and `CC(C)(C)C[C@H](NC(=O)c1cc2ccc(Cl)cc2[nH]1)C(=O)N[C@H](C#N)C[C@@H]1CCCNC1=O` [Compound 745], with more than 4.66.

In general, pIC50 refers to −log10 of the IC50, conventionally taken in molar units. What is called pEC50 is the EC50 on a negative log10 scale, so that one unit is a factor of ten. What is called IC50 is the concentration that inhibits the measured activity by half.
